Measured values taken from US12194039B2, “Methods of treating heart failure by administering omecamtiv mecarbil” (Cytokinetics, Inc., priority 2020, dated 2025).
“Also recorded” adds a separate entry of the source. Like-named read-outs stand apart in the source and are kept apart here.

Tests used:
[1] = test system: patients with EF≤30%, without AFF, without digoxin; type: in vivo, human
[2] = Clinical pharmacokinetics: distribution and elimination; settings: human, in vivo
Description: The volume of distribution at steady state was approximately 4.8-6.6 L/kg.
Clearance of OM after oral administration was primarily through metabolism in the liver. […] Following oral administration of radiolabeled OM to healthy subjects, approximately 49% of the dose was excreted in urine (primarily as metabolites with 8% of parent compound recovered) and 38% in feces (primarily as unchanged drug).

BCRP = biological target: T1, BCRP (Homo sapiens, UniProt Q9UNQ0); experiment: In vitro inhibition by OM; type: in vitro ADME; settings: result in words
T1 sequence (Q9UNQ0 1-655): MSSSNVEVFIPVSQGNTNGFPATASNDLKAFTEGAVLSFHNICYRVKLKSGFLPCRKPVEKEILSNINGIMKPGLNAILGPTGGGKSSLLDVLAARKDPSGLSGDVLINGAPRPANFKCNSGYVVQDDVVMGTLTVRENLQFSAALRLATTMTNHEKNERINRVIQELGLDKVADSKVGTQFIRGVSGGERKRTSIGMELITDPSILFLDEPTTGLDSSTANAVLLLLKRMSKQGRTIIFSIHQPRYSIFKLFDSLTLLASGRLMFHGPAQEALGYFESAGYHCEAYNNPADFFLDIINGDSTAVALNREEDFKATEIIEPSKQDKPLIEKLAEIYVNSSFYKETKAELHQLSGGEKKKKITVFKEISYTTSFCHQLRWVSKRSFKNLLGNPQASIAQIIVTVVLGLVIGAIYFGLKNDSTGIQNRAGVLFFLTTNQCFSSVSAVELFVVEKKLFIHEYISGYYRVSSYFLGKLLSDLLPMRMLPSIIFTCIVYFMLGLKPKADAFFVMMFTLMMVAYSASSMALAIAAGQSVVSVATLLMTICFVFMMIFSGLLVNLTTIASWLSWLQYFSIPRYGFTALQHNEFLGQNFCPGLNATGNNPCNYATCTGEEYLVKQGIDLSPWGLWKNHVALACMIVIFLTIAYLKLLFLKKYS

[3] = Effect of food on OM systemic exposure; type: in vivo, human; settings: healthy subjects; result in words
P-gp = P-gp (Homo sapiens, UniProt P08183); experiment: In vitro inhibition by OM; type: in vitro ADME; settings: result in words
P-gp, sequence (P08183 whole entry): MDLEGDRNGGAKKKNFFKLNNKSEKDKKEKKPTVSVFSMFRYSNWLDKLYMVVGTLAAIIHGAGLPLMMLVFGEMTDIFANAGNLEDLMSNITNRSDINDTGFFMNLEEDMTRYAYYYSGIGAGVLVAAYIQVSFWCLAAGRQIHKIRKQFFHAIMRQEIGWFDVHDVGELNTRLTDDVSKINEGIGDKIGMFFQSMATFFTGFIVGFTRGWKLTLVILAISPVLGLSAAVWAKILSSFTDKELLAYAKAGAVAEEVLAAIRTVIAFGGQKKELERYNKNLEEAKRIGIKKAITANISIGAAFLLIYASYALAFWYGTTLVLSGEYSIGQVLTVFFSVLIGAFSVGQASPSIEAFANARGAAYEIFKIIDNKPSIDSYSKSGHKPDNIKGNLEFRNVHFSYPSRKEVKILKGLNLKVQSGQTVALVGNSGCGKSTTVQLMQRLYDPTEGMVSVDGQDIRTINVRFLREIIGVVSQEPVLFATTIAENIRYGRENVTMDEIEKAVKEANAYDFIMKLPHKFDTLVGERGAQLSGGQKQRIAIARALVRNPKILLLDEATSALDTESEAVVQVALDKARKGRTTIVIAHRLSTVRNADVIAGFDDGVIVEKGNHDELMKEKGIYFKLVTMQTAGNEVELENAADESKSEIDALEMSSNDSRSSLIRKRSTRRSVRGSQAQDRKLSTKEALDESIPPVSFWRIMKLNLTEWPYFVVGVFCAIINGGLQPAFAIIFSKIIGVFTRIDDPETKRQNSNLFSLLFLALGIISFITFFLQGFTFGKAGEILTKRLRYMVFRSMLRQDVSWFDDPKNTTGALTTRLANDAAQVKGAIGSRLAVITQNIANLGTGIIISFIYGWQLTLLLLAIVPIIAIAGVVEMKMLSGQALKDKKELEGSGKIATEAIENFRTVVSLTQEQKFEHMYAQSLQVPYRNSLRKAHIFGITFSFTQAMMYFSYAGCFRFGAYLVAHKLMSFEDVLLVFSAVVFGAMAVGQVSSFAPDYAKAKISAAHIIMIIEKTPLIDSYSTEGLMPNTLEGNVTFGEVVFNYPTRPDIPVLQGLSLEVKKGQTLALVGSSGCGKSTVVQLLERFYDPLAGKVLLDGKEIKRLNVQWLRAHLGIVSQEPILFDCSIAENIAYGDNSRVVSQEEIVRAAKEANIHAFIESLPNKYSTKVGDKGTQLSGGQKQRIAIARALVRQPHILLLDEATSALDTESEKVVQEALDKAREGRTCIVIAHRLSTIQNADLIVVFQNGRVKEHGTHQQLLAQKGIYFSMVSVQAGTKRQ

plasma proteins = experiment: Plasma protein binding; type: in vitro ADME
[4] = test system: patients with HFrEF by baseline SBP; type: in vivo
Description: Systolic blood pressure (SBP) is a major predictor of outcomes in patients with heart failure and reduced ejection fraction (HFrEF). […] This trial provided data on the efficacy and tolerability of omecamtiv mecarbil according to baseline SBP values. In contrast to other HFrEF therapies, which may not be tolerated in patients with low baseline blood pressure (e.g., <100 mmHg), the present study was able to enroll patients with SBP at baseline of 85 mmHg or greater.
The 8232 randomized patients were subdivided according to SBP at baseline: <100 mmHg (n=1473), 101-110 mmHg (n=1734), 111-120 mmHg (n=1824), 121-130 mmHg (n=1627), and >130 mmHg (n=1574). Significant differences between these subgroups were found with respect of multiple baseline characteristics. The primary composite endpoint occurred in 715 (48.5%), 682 (39.3%), 679 (37.2%), 556 (34.2%), and 498 (31.6%) patients in each SBP subgroup, respectively. Hazard ratios (HRs) and 95% confidence intervals (CIs) for the treatment effect on the primary outcome were of 0.81, 0.70-0.94; 0.88, 0.76-1.03; 1.03, 0.88-1.19; 0.87, 0.73-1.03; and 1.07, 0.90-1.28 in each SBP subgroup, respectively.

CYP2C8 = biological target: T2, CYP2C8 (Homo sapiens, UniProt P10632); experiment: Clinical studies and physiologically based pharmacokinetic modeling of OM as perpetrator; type: in vivo; design: from tissue; settings: clinical studies and PBPK modeling; result in words
T2 sequence (P10632 1-490): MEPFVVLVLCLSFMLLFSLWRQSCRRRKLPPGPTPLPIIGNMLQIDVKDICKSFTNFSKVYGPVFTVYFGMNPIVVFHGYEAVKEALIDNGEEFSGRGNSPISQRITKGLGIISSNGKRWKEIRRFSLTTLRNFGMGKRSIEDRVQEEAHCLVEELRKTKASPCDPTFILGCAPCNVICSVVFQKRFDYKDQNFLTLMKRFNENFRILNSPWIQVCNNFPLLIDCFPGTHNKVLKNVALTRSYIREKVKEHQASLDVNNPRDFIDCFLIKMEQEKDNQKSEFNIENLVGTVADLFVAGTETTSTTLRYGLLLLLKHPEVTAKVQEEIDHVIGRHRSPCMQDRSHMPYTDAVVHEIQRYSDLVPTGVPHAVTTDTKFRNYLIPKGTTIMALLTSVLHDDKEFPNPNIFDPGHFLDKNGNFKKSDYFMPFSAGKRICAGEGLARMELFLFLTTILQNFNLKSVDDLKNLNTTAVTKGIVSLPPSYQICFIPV
Description: OM may be administered with drugs that are substrates of CYP3A4, CYP2C8, P-gp or BCRP.

patients with HFrEF = settings: result in words, cited from earlier work
[5] = EF ≤30%, no AFF, no digoxin, OM + standard care (n = 2674)
[6] = EF ≤30%, no AFF, no digoxin, OM vs Pbo

COC(=O)N1CCN(Cc2cccc(NC(=O)Nc3ccc(C)nc3)c2F)CC1 [omecamtiv mecarbil]
Cumulative rate of HFEs at 36 months [1, 5]: 81.8/ /100 pts | Frequency of HFE (all events) [1, 5]: 31.2/ /100 pt yrs | IV Diuretics /Inotropes Nasodilators [1, 5]: 35.7 /100 pt yrs | Mechanical circulatory support during HF hospitalizations [1, 5]: 2.2 /100 pt yrs | Mechanical fluid removal during HF hospitalizations [1, 5]: 0.8 /100 pt yrs | Time to first HFE, rate [1, 5]: 18.9/ /100 pt yrs | Total days in hospital [1, 5]: 524.1 /100 pt yrs | Cumulative rate of HFEs at 36 months, Rate Ratio [1, 6]: Rate Ratio 0.799 | Cumulative rate of HFEs: treatment effect over time [1, 6]: increasing | Frequency of HFE (all events), ARR [1, 6]: ARR 6.7/100 pt yrs | Frequency of HFE (all events), HR [1, 6]: HR 0.85, | Frequency of HFE (all events), NNT [1, 6]: NNT 14.9 | Time to first HFE, ARR [1, 6]: ARR 3.8/100 pt yrs | Time to first HFE, NNT [1, 6]: NNT 26.5 | Clinical benefits and resource utilization ([1]; EF≤30%, without AFF, without digoxin at baseline, result in words): significant clinical benefits and reductions in resource utilization | Renal clearance as share of the systemic clearance [2]: less than 10% | CL renal ([2]; oral, read-out: Mean renal clearance (converted)): 16.7 mL/min | clearance ([2]; oral, read-out: Total systemic clearance (converted)): 195 mL/min | half-life ([2]; patients with heart failure, read-out: Median half-life): 23 to 32 h | Vd ([2]; read-out: Volume of distribution at steady state): 4.8 to 6.6 L/kg | Inhibition of BCRP (BCRP): inhibitor | Effect of a high-fat, high-calorie meal on systemic exposure [3]: no clinically significant effect | Inhibition of P-gp (P-gp): inhibitor | Binding to plasma proteins (plasma proteins): 81.5% | Concentration dependence of protein binding (plasma proteins; result in words): independent of drug concentration up to 4000 ng/mL | Primary outcome, hazard ratio for the treatment effect ([4]; baseline SBP 101-110 mmHg (n=1734)): 0.88 | Primary outcome, hazard ratio for the treatment effect ([4]; baseline SBP 111-120 mmHg (n=1824)): 1.03 | Primary outcome, hazard ratio for the treatment effect ([4]; baseline SBP 121-130 mmHg (n=1627)): 0.87 | Primary outcome, hazard ratio for the treatment effect ([4]; baseline SBP <100 mmHg (n=1473)): 0.81 | Primary outcome, hazard ratio for the treatment effect ([4]; baseline SBP >130 mmHg (n=1574)): 1.07 | Inhibition of CYP2C8 (CYP2C8): weak inhibitor | Left ventricular systolic and diastolic volumes, natriuretic peptide concentrations and heart rate (patients with HFrEF; oral therapy for 20 weeks, chronic HFrEF): reduced left ventricular systolic and diastolic volumes, plasma natriuretic peptide concentrations and heart rate; also recorded: decreased left ventricular systolic and diastolic volumes | Cardiac performance (patients with HFrEF; short-term intravenous and longer-term oral therapy): improved cardiac performance
